Assay results taken from the supplement of paper PMC10702517.
± gives the standard deviation.

Key:
[1] = chemical recovery from spiked human plasma; higher = better extraction; details: pooled human plasma
[2] = chemical recovery by SPE of plasma after PDMS sampling; higher = better extraction; details: pooled human plasma, extraction method: HLB SPE of plasma after PES
[3] = chemical recovery into PDMS from spiked human plasma; higher = better extraction; details: pooled human plasma, extraction method: PES with PDMS
[4] = extraction method: PES+SPE (3 d PDMS equilibration then HLB SPE)
[5] = extraction method: SPE only (HLB 96-well)
[6] = extraction method: SPE only (HLB 96-well), PES comparison experiment
[7] = extraction method: solvent precipitation (ACN + hexane)
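For chemical recovery by SPE of plasma after PDMS sampling in this document: over 400 spiked chemicals quantified by LC-HRMS or GC-HRMS via internal standard calibration, recovery relative to spike mix added to unspiked plasma extract to correct matrix effects.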

| Compound | chemical recovery [1, 4] | chemical recovery [1, 5] | chemical recovery [1, 6] | chemical recovery [1, 7] | chemical recovery by SPE of plasma ([2]; equilibration time (d): 1) | chemical recovery by SPE of plasma ([2]; equilibration time (d): 3) | chemical recovery by SPE of plasma ([2]; equilibration time (d): 6) | chemical recovery into PDMS ([3]; equilibration time (d): 1) | chemical recovery into PDMS ([3]; equilibration time (d): 3) | chemical recovery into PDMS ([3]; equilibration time (d): 6) |
| --- | --- | --- | --- | --- | --- | --- | --- | --- | --- | --- |
| Nc1ccc(Sc2ccc(N)cc2)cc1 [4,4'-Thiodianiline] | 1.15 ± 0.088% | 8.97 ± 1.9% | 16.5 ± 2% | 42.1 ± 9.6% | 11.7 ± 2.8% | 10.6 ± 2.5% | 7.77 ± 1.4% | – | – | – |
| Cc1cnc2c(C(=O)O)c(Cl)ccc2c1 [Quinmerac] | 43.6 ± 2.5% | 40.8 ± 3.5% | 52.2 ± 6.4% | 65.8 ± 4.1% | 54.5 ± 9.6% | 61.1 ± 6.2% | 56.5 ± 1.8% | – | – | – |
| Cc1cccc(Nc2ccccc2C(=O)O)c1C [Mefenamic acid] | 60.9 ± 5.4% | 45 ± 7.8% | 15.7 ± 2.9% | 54.2 ± 2.1% | 14.9 ± 5% | 16.4 ± 0.37% | 14.5 ± 3% | – | – | – |
| CC(=O)Nc1ccc(O)c(C(=O)O)c1 [N-Acetyl mesalazine] | – | – | 58.9 ± 4.9% | – | 56.2 ± 8.4% | 61.6 ± 4.1% | 55.1 ± 4.2% | – | – | – |
| CCc1cccc(C)c1N(C(=O)C(=O)O)C(C)C(=O)O (stereo not drawn) [Metolachlor CGA 357-704] | – | – | 41 ± 6% | – | – | 54.2 ± 4.1% | 47.4 ± 3% | – | – | – |
| C(=C/c1ccccc1)/c1ccccc1 [cis-Stilbene] | – | 3.93 ± 0.065% | 3.65 ± 1.4% | – | – | – | 0.481 ± 2.9% | – | – | – |
| CCc1ccc(CCOc2ccc(CC3SC(=O)NC3=O)cc2)nc1 (stereo not drawn) [Pioglitazone] | 42.9 ± 3.5% | 48.6 ± 3.3% | 42.9 ± 6% | – | 45.8 ± 9.5% | 49.1 ± 3% | 47 ± 6.1% | – | – | – |
| CN(C)C(=O)C(CCN1CCC(O)(c2ccc(Cl)cc2)CC1)(c1ccccc1)c1ccccc1 [Loperamide] | – | – | 50.8 ± 7.4% | 73.1 ± 3.5% | 3.98 ± 0.26% | 3.93 ± 0.72% | 2.64 ± 0.097% | – | – | – |
| COP(=O)(OC)C(O)C(Cl)(Cl)Cl (stereo not drawn) [Trichlorfon] | 13.2 ± 1.2% | 33.1 ± 1.9% | 43.1 ± 8.1% | 0.0499 ± 0.086% | 30.8 ± 2.4% | 25.3 ± 0.61% | 18.2 ± 1.2% | – | – | – |
| O=C1Cc2cc(CCN3CCN(c4nsc5ccccc45)CC3)c(Cl)cc2N1 [Ziprasidone] | 22.9 ± 2.4% | 38.7 ± 2.6% | 41.5 ± 7.6% | 76 ± 9.8% | 37.1 ± 6.7% | 34 ± 4.3% | 25.3 ± 2.6% | – | – | – |
| CC(=O)c1cc2c(cc1C)C(C)(C)C(C)C2(C)C (stereo not drawn) [Phantolide] | – | – | – | – | – | – | – | 32.9 ± 0.97% | 37.4 ± 3.8% | 34.1 ± 3.6% |
| CC(C)(Oc1ccc(Cl)cc1)C(=O)O [Clofibric acid] | 44.8 ± 1.8% | 44.7 ± 2.7% | 61 ± 5.4% | 66.6 ± 7.9% | 53.1 ± 9.5% | 58.7 ± 6.2% | 51.5 ± 4.8% | – | – | – |
| Oc1ccc(Cl)cc1Cl [2,4-Dichlorophenol] | 43.4 ± 3.3% | 40.3 ± 3.3% | 54.2 ± 5.9% | – | 49.3 ± 11% | 56.9 ± 4.3% | 50.9 ± 3.1% | – | – | – |
| CC(C)N1C(=O)c2ccccc2NS1(=O)=O [Bentazone] | 44.5 ± 3.6% | 41.7 ± 3.2% | 63.8 ± 5.6% | 75.2 ± 2.8% | 54.8 ± 8.1% | 58 ± 4.1% | 54.7 ± 3.1% | – | – | – |
| O=C(O)c1ccccc1O [Salicylic acid] | – | – | 69.7 ± 4.9% | – | 61.1 ± 13% | 78.9 ± 5.7% | 59.8 ± 3.9% | – | – | – |
| CO/N=C(/C(=O)O)c1ccccc1CO/N=C(\C)c1cccc(C(F)(F)F)c1 | – | – | 35.7 ± 5.6% | 78.6 ± 6.2% | – | 38.9 ± 4.6% | 33.6 ± 9.2% | – | – | – |
| COCC(C)N(C(=O)CS(=O)(=O)O)c1c(C)csc1C (stereo not drawn) [Dimethenamid ESA] | – | – | 49.6 ± 3.4% | – | 45.5 ± 8.5% | 51.4 ± 4.4% | 45.4 ± 4.1% | – | – | – |
| COC(=O)c1cc(C(=O)OC)cc(S(=O)(=O)O)c1 [Dimethyl-5-sulfoisophthalate] | 44.6 ± 2.1% | 45.3 ± 3% | 52.4 ± 4.3% | 46.7 ± 3.3% | 49.8 ± 6.7% | 54.2 ± 3.9% | 49.3 ± 4% | – | – | – |
| O=C(O)C(F)(F)C(F)(F)C(F)(F)F [Perfluorobutanoic acid] | 26.4 ± 3.3% | 23.3 ± 2.6% | 41.2 ± 3.3% | 73 ± 7.5% | 24.1 ± 6% | 23.9 ± 1.9% | 23.3 ± 8.1% | – | – | – |
| CCc1cccc(C)c1NC(=O)CS(=O)(=O)O | – | – | 42.9 ± 4.2% | – | 37.4 ± 8.2% | 40.4 ± 2% | 40.3 ± 9.3% | – | – | – |
| Oc1c(Br)cc(Cl)cc1Cc1cc(Cl)cc(Br)c1O [Bromochlorophen] | 34.8 ± 6.3% | 28.9 ± 6% | 32.3 ± 8% | 34.9 ± 2% | 34.8 ± 10% | – | – | – | – | – |
| CC[N+](CC)(CC(=O)Nc1c(C)cccc1C)Cc1ccccc1 [Denatonium] | 50.8 ± 2.9% | 38.4 ± 3.9% | 49.9 ± 3.3% | 71.9 ± 3.3% | 56.4 ± 6.3% | 57.1 ± 3.3% | 54.9 ± 6.9% | – | – | – |
| COc1cc(NS(=O)(=O)c2ccc(N)cc2)nc(OC)n1 [Sulfadimethoxine] | 33.4 ± 3.4% | 30.1 ± 3.6% | 45.7 ± 3.6% | – | 49 ± 9.9% | 50.2 ± 5.5% | 48.5 ± 7.4% | – | – | – |
| O=C(c1ccc(OCCN2CCCCC2)cc1)c1c(-c2ccc(O)cc2)sc2cc(O)ccc12 [Raloxifene] | – | – | 47.4 ± 8.5% | 63.5 ± 3.5% | 41.3 ± 2.1% | 46.1 ± 2.4% | 39.8 ± 2.8% | – | – | – |
| O=c1cc(O)c2ccccc2o1 [4-Hydroxycoumarin] | – | – | 13.2 ± 3.1% | – | 69.3 ± 16% | 64.3 ± 4.7% | 78 ± 15% | – | – | – |
| C/C(=C\c1ccccc1)c1ccccc1 [trans-a-Methylstilbene] | – | – | – | – | – | – | – | – | 97.6 ± 13% | 112 ± 44% |
| COc1nc(C)nc(NC(=O)NS(=O)(=O)c2ccccc2CCC(F)(F)F)n1 [Prosulfuron] | 44.3 ± 3.7% | 37.9 ± 4.5% | 42.7 ± 6.3% | 75.5 ± 0.94% | 48.5 ± 11% | 50.6 ± 4.8% | 45.3 ± 5.2% | – | – | – |
| Cc1ccc(S(=O)(=O)O)c(C)c1 [m-Xylene-4-sulfonic acid] | – | 46.9 ± 14% | 45.2 ± 4.9% | 74.3 ± 4.9% | – | 36.3 ± 2.3% | 38.3 ± 8.9% | – | – | – |
| CC1=CC(=O)NS(=O)(=O)O1 [Acesulfame] | 11.2 ± 1.4% | 19.4 ± 5.8% | – | 93.4 ± 4.7% | – | 1.86 ± 0.99% | 8.53 ± 4.2% | – | – | – |
| CCCCCCCCCCCC[N+](C)(C)Cc1ccccc1 [Benzyldimethyldodecylammonium] | – | – | 46.5 ± 13% | – | 39.1 ± 6.7% | 43.2 ± 10% | – | – | – | – |
